According to the supplement of paper PMC9386025:

Key:
Assay in all cases: drug sensitivity score (DSS) (DSS (dimensionless)); higher = more sensitive (stronger drug response)
FIMM-PDC6 = patient-derived ovarian cancer cells; conditions: genetic perturbation: none (patient-derived cell culture)
Procedure, shortened: (§1)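 Drugs were pre-plated in 384-well plates at five concentrations covering a 10,000-fold range, and 1 000 – 1 500 cells per well were added from patient-derived cultures or from ovarian cancer cell lines whose shRNA had been induced with 100 ng/ml doxycycline for three days or longer. Incubation lasted three days at 37 °C under 5.0 % CO2. A PHERAstar FS then recorded CellTiter-Glo luminescence as the readout of viability. A drug sensitivity score, calculated as described before, summarised the dose-response curve of every drug.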

FIMM-PDC5 = patient-derived ovarian cancer cells; conditions: genetic perturbation: none (patient-derived cell culture)
Procedure, shortened: as §1

FIMM-PDC4 = patient-derived ovarian cancer cells; conditions: genetic perturbation: none (patient-derived cell culture)
Procedure, shortened: as §1

OVSAHO = test system: OVSAHO
Procedure, shortened: as §1

JHOS2 = test system: JHOS2
Procedure, shortened: as §1

FIMM-PDC1 = patient-derived ovarian cancer cells; conditions: genetic perturbation: none (patient-derived cell culture)
Procedure, shortened: as §1

FIMM-PDC3 = patient-derived ovarian cancer cells; conditions: genetic perturbation: none (patient-derived cell culture)
Procedure, shortened: as §1

FIMM-PDC7 = patient-derived ovarian cancer cells; conditions: genetic perturbation: none (patient-derived cell culture)
Procedure, shortened: as §1

Kuramochi = test system: Kuramochi
Procedure, shortened: as §1

[1] = genetic perturbation: DOX-induced PTK7 shRNA knockdown
[2] = genetic perturbation: DOX-induced control shRNA

SMILES | drug sensitivity score (FIMM-PDC6) | drug sensitivity score (FIMM-PDC5) | drug sensitivity score (FIMM-PDC4) | drug sensitivity score (OVSAHO; [1]) | drug sensitivity score (OVSAHO; [2]) | drug sensitivity score (JHOS2; [1]) | drug sensitivity score (JHOS2; [2]) | drug sensitivity score (FIMM-PDC1) | drug sensitivity score (FIMM-PDC3) | drug sensitivity score (FIMM-PDC7) | drug sensitivity score (Kuramochi; [1]) | drug sensitivity score (Kuramochi; [2])
Cc1cc(-c2nc(-c3ccc(OC(F)(F)F)cc3)no2)nn1Cc1ccnc(N2CCN(C3CC3)CC2)c1 [BAY 87-2243] | 8.3 | < 0 | 1.5 | < 0 | 3.5 | 1.3 | < 0 | < 0 | 0.9 | < 0 | 5.7 | < 0
CC[C@@H]1C(=O)N(C)c2cnc(Nc3ccc(C(=O)NC4CCN(C)CC4)cc3OC)nc2N1C1CCCC1 [BI 2536] | 0.1 | 19.4 | 6.1 | 5.9 | 8.8 | 16 | 4.6 | 6.05 | 7.5 | 3.5 | 10.7 | 3
COc1c(C)cnc(Cn2cnc3c(Cl)nc(N)nc32)c1C [BIIB021] | 13.5 | 18 | 18.8 | < 0 | 8.1 | 16.5 | 12.6 | 12.8 | 12.1 | 14.6 | 10.4 | 0.9
O=C(Nc1cccc(Nc2ncc(Br)c(NCCc3cnc[nH]3)n2)c1)N1CCCC1 [BX-912] | 2.2 | 6.9 | 3.9 | 3.8 | 2.2 | 5.5 | 2.4 | 2.85 | 1.2 | 9.2 | 2.35 | 3.7
O=C(/C=C/c1cccc(S(=O)(=O)Nc2ccccc2)c1)NO [Belinostat] | 13 | 12.3 | 5.5 | 15.2 | 9.7 | 13 | 9.4 | 9.65 | 14.1 | 10 | 17.6 | 7.6
Cc1sc2c(c1C)C(c1ccc(Cl)cc1)=N[C@@H](CC(=O)Nc1ccc(O)cc1)c1nnc(C)n1-2 [Birabresib] | 3.7 | 12.7 | 5.6 | 7.3 | 13.4 | 9.6 | 8.1 | 4.2 | 4.3 | 8.3 | 13.9 | 4.8
CC[C@H](NC(=O)[C@H](C)NC)C(=O)N1C[C@@H](O)C[C@H]1Cc1c(-c2[nH]c3cc(F)ccc3c2C[C@@H]2C[C@H](O)CN2C(=O)[C@H](CC)NC(=O)[C@H](C)NC)[nH]c2cc(F)ccc12 [Birinapant] | 4.1 | 0.6 | < 0 | 5.7 | 2.1 | 17.4 | 16.7 | 6.4 | 11.7 | < 0 | 3.9 | 3.6
CC(C)C[C@H](NC(=O)[C@H](Cc1ccccc1)NC(=O)c1cnccn1)B(O)O [Bortezomib] | 31.8 | 27.4 | 28.8 | 24.2 | 11.6 | 25.7 | 23.6 | 29.1 | 30.6 | 31.9 | 16.3 | 20.1
COc1cc(Nc2c(C#N)cnc3cc(OCCCN4CCN(C)CC4)c(OC)cc23)c(Cl)cc1Cl [Bosutinib] | 12.3 | 14.3 | 13.7 | 12.1 | 8.7 | 9.3 | 10.9 | 7.4 | 10.5 | 6.5 | 10.6 | 6.4
Nc1cc(C(F)(F)F)c(-c2cc(N3CCOCC3)nc(N3CCOCC3)n2)cn1 [Buparlisib] | 7.8 | 12.2 | 9.7 | 7.2 | 6.6 | 6.4 | 4.6 | 5.4 | 7.1 | 10.8 | 7.25 | 4.6
CCN1C(=O)CNc2ncc(-c3ccc(-c4nc[nH]n4)nc3C)nc21 [CC-115] | 9.5 | 14 | 10 | 10 | 7.1 | 6.4 | 7.1 | 5.8 | 6.6 | 17.4 | 6.85 | 7.1
Cc1noc2c1-c1ccccc1C(c1ccc(Cl)cc1)=N[C@H]2CC(N)=O [CPI-0610] | 3.1 | 8.7 | 3.9 | 7 | 9.5 | 5.9 | 4.2 | 2.1 | 3.7 | 5.5 | 10.5 | 6.1
CN(C)c1cc2c(cc1Sc1nc3c(N)nccc3n1CCNCC(C)(C)C)OCO2 [CUDC-305] | 11.6 | 12.8 | 15.8 | < 0 | 6.3 | 11.5 | 9.9 | 11.5 | 9.8 | 12.7 | 7.3 | 0.8
COc1ccc(-c2nc(N3CCOCC3)c3sc(CN(C)c4ncc(C(=O)NO)cn4)cc3n2)cn1 [CUDC-907] | 29.9 | 34.5 | 22.7 | 27.8 | 31 | 31.3 | 28.1 | 29.9 | 34.3 | 25.9 | 33.1 | 27.7
CO[C@H]1C(=O)[C@]2(C)[C@@H](OC)C[C@H]3OC[C@@]3(OC(C)=O)[C@H]2[C@H](OC(=O)c2ccccc2)[C@]2(O)C[C@H](OC(=O)[C@H](O)[C@@H](NC(=O)OC(C)(C)C)c3ccccc3)C(C)=C1C2(C)C [Cabazitaxel] | 8.7 | 23.5 | 23.9 | 12.3 | 15.3 | 20.4 | 13.8 | 17.4 | 21.9 | 12.7 | 19.6 | 3.8
C=CC(=O)Nc1cc2c(Nc3ccc(F)c(Cl)c3)ncnc2cc1OCCCN1CCOCC1 [Canertinib] | 20.8 | 27.5 | 20.4 | 8.2 | 7.6 | 8.1 | 7.4 | 7.4 | 15.7 | 12.1 | 8.9 | 8.6

SMILES | drug sensitivity score (FIMM-PDC6) | drug sensitivity score (FIMM-PDC5) | drug sensitivity score (FIMM-PDC4) | drug sensitivity score (OVSAHO; [1]) | drug sensitivity score (OVSAHO; [2]) | drug sensitivity score (JHOS2; [1]) | drug sensitivity score (JHOS2; [2]) | drug sensitivity score (FIMM-PDC1) | drug sensitivity score (FIMM-PDC3) | drug sensitivity score (FIMM-PDC7) | drug sensitivity score (Kuramochi; [1]) | drug sensitivity score (Kuramochi; [2])
O=C(O)C1(C(=O)O)CCC1.[NH2-].[NH2-].[Pt+2] [Carboplatin] | 2.8 | 3.8 | 3.2 | 8.7 | 2.7 | 7.6 | 5.3 | 2.55 | 16.2 | 2.4 | 4.4 | 4.7
CC(C)C[C@H](NC(=O)[C@H](CCc1ccccc1)NC(=O)CN1CCOCC1)C(=O)N[C@@H](Cc1ccccc1)C(=O)N[C@@H](CC(C)C)C(=O)[C@@]1(C)CO1 [Carfilzomib] | 29.3 | 23.6 | 22.2 | 24.9 | 20.5 | 25.2 | 23.7 | 26.6 | 28.3 | 26.1 | 21.9 | 25
CCS(=O)(=O)N1CCN(c2ccc(Nc3ncc(C(N)=O)c(NC4CC4)n3)cc2)CC1 [Cerdulatinib] | < 0 | < 0 | < 0 | < 0 | < 0 | 8.2 | < 0 | < 0 | < 0 | 5.3 | < 0 | < 0
CC(C)[C@H]1C(=O)N[C@@H](CCCNC(=N)N)C(=O)NCC(=O)N[C@@H](CC(=O)O)C(=O)N[C@H](Cc2ccccc2)C(=O)N1C [Cilengitide] | < 0 | < 0 | < 0 | 9.6 | 6.1 | 5 | 0.9 | 0.75 | < 0 | 1.3 | 8.65 | 3
N.N.[Cl][Pt][Cl] [Cisplatin] | 9.8 | 5.4 | 5.7 | 17.6 | 5.1 | 14.9 | 4.1 | 4.8 | 18.9 | 4.7 | 14.2 | 7
Nc1nc(Cl)nc2c1ncn2[C@@H]1O[C@H](CO)[C@@H](O)[C@@H]1F [Clofarabine] | 3.2 | 13.6 | 7.4 | 2.5 | 3.4 | 15.1 | 10.3 | 3.15 | 6.1 | 3.2 | < 0 | < 0
CCN(CC)CCOc1ccc(C(=C(Cl)c2ccccc2)c2ccccc2)cc1 [Clomifene] | 5.2 | 8 | 7.5 | 5.2 | 4.2 | 6.9 | 4.1 | 7.05 | 5.7 | 7 | 5.45 | 2
O=C(c1ccc(F)c(F)c1Nc1ccc(I)cc1F)N1CC(O)([C@@H]2CCCCN2)C1 [Cobimetinib] | 12 | 12.7 | 12.4 | 9 | 3.9 | 0.8 | 11.1 | < 0 | 4.8 | 7.4 | 6.05 | 2.8
COc1c(OCCCN2CCOCC2)ccc2c1N=C(NC(=O)c1cnc(N)nc1)N1CCN=C21 [Copanlisib] | 10.2 | 17.3 | 12.4 | 7.8 | 10.5 | 4.4 | 5.8 | 7.3 | 6.2 | 11.1 | 6.95 | 4.6
CC1(COc2ccc3c(c2)ncn3-c2ccc3cccc(N4CCC(N)CC4)c3n2)COC1 [Crenolanib] | 4 | 8.5 | 5 | 3.8 | 3.7 | 8.5 | 5.7 | 3.55 | 5.3 | 4.7 | 3.65 | 2.9
COc1cc2ncnc(Nc3ccc(F)c(Cl)c3)c2cc1NC(=O)/C=C/CN1CCCCC1 [Dacomitinib] | 18 | 23.4 | 18.2 | 4.8 | 2.4 | < 0 | 2 | 3.2 | 13.1 | 14 | 2.45 | 1.6
Cc1c2oc3c(C)ccc(C(=O)N[C@@H]4C(=O)N[C@H](C(C)C)C(=O)N5CCC[C@H]5C(=O)N(C)CC(=O)N(C)[C@@H](C(C)C)C(=O)O[C@@H]4C)c3nc-2c(C(=O)N[C@@H]2C(=O)N[C@H](C(C)C)C(=O)N3CCC[C@H]3C(=O)N(C)CC(=O)N(C)[C@@H](C(C)C)C(=O)O[C@@H]2C)c(N)c1=O [Dactinomycin] | 22.1 | 25.2 | 23.1 | 23.1 | 18 | 21.1 | 23.4 | 23.6 | 26.5 | 26 | 23.3 | 19.9
Cn1c(=O)n(-c2ccc(C(C)(C)C#N)cc2)c2c3cc(-c4cnc5ccccc5c4)ccc3ncc21 [Dactolisib] | 19 | 21.6 | 17.2 | 11.8 | 13.8 | 10.3 | 14.1 | 10.1 | 11.1 | 17 | 11.7 | 11.9
CO[C@@H](C(=O)N1Cc2[nH]nc(NC(=O)c3ccc(N4CCN(C)CC4)cc3)c2C1)c1ccccc1 [Danusertib] | 9.4 | 9.6 | 11.6 | 17.5 | 7.5 | 6.6 | 5.5 | 7.7 | 9.9 | 1.8 | 10.4 | 13
Cc1nc(Nc2ncc(C(=O)Nc3c(C)cccc3Cl)s2)cc(N2CCN(CCO)CC2)n1 [Dasatinib] | 10.7 | 17.8 | 19 | 14.5 | 15 | 8.7 | 10.1 | 6.05 | 13.9 | 3.2 | 17.9 | 9.5
COc1cccc2c1C(=O)c1c(O)c3c(c(O)c1C2=O)C[C@@](O)(C(C)=O)C[C@@H]3O[C@H]1C[C@H](N)[C@H](O)[C@H](C)O1 [Daunorubicin] | 7.4 | 10.7 | 8.4 | 8.3 | 4.4 | 4 | 5.6 | 4.65 | 7.8 | 9 | 4.2 | 4.6
